Type in all cases: cell-based, human
For experiment [1], the system named is Peripheral blood mononuclear cells (PBMC) of HIV-1 infected individuals. Kind of experiment: Ex vivo ELISPOT assay for single-cell IFN-γ release, HIV-infected individuals. The conditions noted are these: patient HSR-028. On the procedure: Peripheral blood mononuclear cells (PBMC) were seeded in duplicate at 2×10^5 cells/well in 96-well plates (MAIPS4510; Millipore, Bedford, Mass.) precoated with anti-IFN-γ capture monoclonal antibody (B-B1; Diaclone, Besancon, France) and stimulated with the different peptide pools at the fixed concentration of 3 μg/ml of each peptide for 18 h at 37° C. in air plus 5% CO2. Biotinylated anti-IFN-γ detection monoclonal antibody (B-G1; Diaclone) was added for 2 h, followed by the addition of streptavidin-alkaline phosphatase conjugate (Amersham Pharmacia Biotech Europe GmbH, Freiburg, Germany) for 1 h. A chromogenic substrate (nitroblue tetrazolium-BCIP [5-bromo-4-chloro-3-indolylphosphate]; Sigma, St. Louis, Mo.) was added for 10 min. The individual spots were counted by using an Automated ELISA-Spot Assay Video Analysis System, Eli-Scan with the software Eli.Analyse V4.2 (A.EL.VIS, Hannover, Germany).
The responses were empirically scored as positive if the test wells contained a mean number of spot-forming cells (SFC) higher than the mean value plus two standard deviations in negative control wells, and if the number of SFC per million PBMC in stimulated wells (subtracted of the values of negative control wells) was ≧50. PBMC in medium alone were used to establish the negative control background, that had to be not higher than 50 SFC per million of cells (10 SFC/well). […]

Experiment [2] has as its system CD45RA+ IFN-γ− IL-2− MIP-1β+ CD8 T-cells. Description: Polychromatic intracellular cytokine staining, detection of CD45RA+ IFN-γ− IL-2− MIP-1β+ CD8 T-cells. The following applies: subject V4. On the procedure:
(§1) After thawing, PBMC were washed trice at room temperature in complete cell culture medium and plated in round bottom 96 wells/plates. All the incubations were carried out in round bottom 96 wells/plates to allow high throughput processing of the probes. 10^6 PBMC/well were incubated with 1.3 μg/ml of antibody to CD28 and with 1.3 μg/ml of antibody to CD49d (Becton Dickinson, Heidelberg, Germany) together with defined peptide pools. For each individual, a sample without peptides was included to calculate the background staining. Following one-hour incubation, 10 μg/ml of Brefeldin A were added to the cell suspension and the incubation carried out for additional 4 hours. Stimulated cells were then resuspended in Stain Buffer (0.2% BSA, 0.09% Na Azide in DPBS; Becton Dickinson) and incubated with the photoreactive fluorescent label ethidium monoazide (EMA; Molecular Probes, Leiden, The Netherlands) used as viability dye. After washing, cells were fixed and permeabilized using the BD Cytofix/Cytoperm™ Kit, (Becton Dickinson). Then, the following fluorochrome-conjugated antibodies were added to the cell suspension: CD3-AmCyan, CD4-PerCP, CD45RA-PECy7, CD154-FITC, IFNγ-A1700, IL2-APC and MIP1β-PE from Becton Dickinson and CD8-PacB from DAKO (Hamburg, Germany). […]
(§2) Following background subtraction, the threshold level was calculated using the 90 percentile of the negative values. […]

Experiment [3] deals with Nef specific CD4 and CD8 T-cells (PBMC). Kind of experiment: Intracellular cytokine staining (IFN-γ) of CD4 and CD8 T cells, Nef peptides. The following applies: subject V4; B8 restricted. How it is done: as §1, with “Dickinson).” for “Dickinson). Then, the following fluorochrome-conjugated antibodies were added to the cell suspension: CD3-AmCyan, CD4-PerCP, CD45RA-PECy7, CD154-FITC, IFNγ-A1700, IL2-APC and MIP1β-PE from Becton Dickinson and CD8-PacB from DAKO (Hamburg, Germany).”
as §2
In this way, the authors could establish whether the higher number of individual responses measured with the new set of overlapping peptides was restricted to the CD8 compartment or interested also CD4 T-cell recognition.

Experiment [4] relates to T-cell response of HIV-1 infected individuals. Kind of experiment: Mapping of Tat- and Nef-specific T-cell responses to single VOPSD peptides in cohorts of HIV-1 infected individuals (Elite Controllers).
The mark [5] stands for this setting: Controllers Upon Suspension (CUS).

Turning to “EPVDPRLEPWKHPGSQPKTA [20mer homolog, 20mer homolog of VOPSD Tat peptide 1 from the standard Tat 20mer set, reference compound]”, the “peptide concentration of maximal recognition (single peptide titration)” value in experiment [1] is listed as “recognized only at the highest concentration tested”.

With FLKEKGGL, the “detection of CD45RA+ IFN-γ− IL-2− MIP-1β+ CD8 T-cells” value in experiment [2] is recorded as “detected”. Besides, the “CD8 T-cell response to the epitope” value in experiment [3] is recorded as “strong CD8 T-cell response”.

On to KKCCFHCQVCFITKALGI [peptide 2.5], for which the “individuals recognizing the peptide” value was 1/15 in experiment [4] (CHI w T), 1/5 in experiment [4] (setting [5]), 4/13 in experiment [4] (Elite Controllers (EC)) and 1/6 in experiment [4] (LTNP).

Take LEPWKHPGSQPKTACTNCY [peptide 2.2]: the “individuals recognizing the peptide” value in experiment [4] (Elite Controllers (EC)) was 5/9.

In the case of MEPVDPRLEPW [VOPSD Tat peptide 1], the “peptide concentration of maximal recognition (single peptide titration)” value in experiment [1] amounted to 0.5 µM.

Regarding QVCFITKALGISYGR [peptide 2.6], the “individuals recognizing the peptide” value in experiment [4] (CHI w T) is on record as 1/15; in experiment [4] (CHI w/o T), 1/13; in experiment [4] (setting [5]) it was 1/5; in experiment [4] (Elite Controllers (EC)) it was 7/13.

Consider VLEWRFDSRLAFHHVAREL [peptide 5.29], for which, in experiment [4] (Elite Controllers (EC)), the “individuals recognizing the peptide” value is recorded as 7/13. For the same sequence, the “immunodominant response in groups other than EC” value in experiment [4] (all other groups of HIV-1 infected individuals) was “not for any of the all the other groups of HIV-1 infected individuals”.

(Values after patent US20110236409A1, “O[…] FROM VARIABLE ANTIGENS, T CELL POPULATIONS AND USES THEREOF” (Helmholtz Zentrum München - Deutsches Forschungszentrum für …, priority 2008, published 2011).)
